Results: the kinase profiling compilation of Christmann-Franck et al. (2016)

Key:
Test in all cases: radiometric filter-binding kinase assay
AURKA (human) = AURKA (human) (UniProt O14965); conditions: compound 0.1 µM
BRSK2 (human) = BRSK2 (human) (UniProt Q8IWQ3)
CDK2 CCNA2 (human) = CDK2 CCNA2 (human) (UniProt P20248+P24941)
CHEK1 (human) = CHEK1 (human) (UniProt O14757)
CHEK2 (human) = CHEK2 (human) (UniProt O96017)
CLK2 (human) = CLK2 (human) (UniProt P49760); conditions: compound 0.1 µM
DAPK1 (human) = DAPK1 (human) (UniProt P53355); conditions: compound 0.1 µM
EEF2K (human) = EEF2K (human) (UniProt O00418)
EPHB4 (human) = EPHB4 (human) (UniProt P54760); conditions: compound 0.1 µM
ERBB4 (human) = ERBB4 (human) (UniProt Q15303)
FLT1 (human) = FLT1 (human) (UniProt P17948)
GCK (human) = GCK (human) (UniProt Q12851)
HIPK1 (human) = HIPK1 (human) (UniProt Q86Z02); conditions: compound 0.1 µM
HIPK3 (human) = HIPK3 (human) (UniProt Q9H422); conditions: compound 0.1 µM
JAK2 JH1 JH2 (human) = JAK2 JH1 JH2 (human) (UniProt O60674); conditions: compound 0.1 µM
MAP3K1 (human) = MAP3K1 (human) (UniProt Q13233); conditions: compound 0.1 µM
MAP3K5 (human) = MAP3K5 (human) (UniProt Q99683); conditions: compound 0.1 µM
MAPK1 (human) = MAPK1 (human) (UniProt P28482)
Sequence of MAPK1 (human) (P28482 whole entry, looked up): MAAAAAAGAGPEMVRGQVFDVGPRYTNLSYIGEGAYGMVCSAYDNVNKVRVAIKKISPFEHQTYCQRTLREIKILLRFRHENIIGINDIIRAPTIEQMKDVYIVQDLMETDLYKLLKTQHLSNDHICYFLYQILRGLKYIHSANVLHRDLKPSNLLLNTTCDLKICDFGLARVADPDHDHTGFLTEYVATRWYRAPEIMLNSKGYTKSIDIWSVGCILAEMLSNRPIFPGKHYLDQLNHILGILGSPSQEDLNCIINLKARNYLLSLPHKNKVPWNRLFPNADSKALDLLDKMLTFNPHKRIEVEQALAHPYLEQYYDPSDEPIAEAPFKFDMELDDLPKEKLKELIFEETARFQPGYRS

MAPK3 (human) = MAPK3 (human) (UniProt P27361)
Sequence of MAPK3 (human) (P27361 whole entry, looked up): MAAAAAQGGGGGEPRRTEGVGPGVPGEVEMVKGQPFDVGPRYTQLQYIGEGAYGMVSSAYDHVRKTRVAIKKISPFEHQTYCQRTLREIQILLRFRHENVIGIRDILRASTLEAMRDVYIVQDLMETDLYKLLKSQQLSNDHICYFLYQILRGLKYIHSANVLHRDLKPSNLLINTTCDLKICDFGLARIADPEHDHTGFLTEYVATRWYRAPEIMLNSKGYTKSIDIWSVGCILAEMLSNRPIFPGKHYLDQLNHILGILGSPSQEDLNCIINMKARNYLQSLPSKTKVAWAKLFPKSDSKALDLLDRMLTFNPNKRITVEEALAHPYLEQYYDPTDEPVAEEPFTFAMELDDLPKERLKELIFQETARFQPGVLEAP

MARK3 (human) = MARK3 (human) (UniProt P27448)
MARK4 (human) = MARK4 (human) (UniProt Q96L34); conditions: compound 0.1 µM
MST4 (human) = MST4 (human) (UniProt Q9P289)
Sequence of MST4 (human) (Q9P289 whole entry, looked up): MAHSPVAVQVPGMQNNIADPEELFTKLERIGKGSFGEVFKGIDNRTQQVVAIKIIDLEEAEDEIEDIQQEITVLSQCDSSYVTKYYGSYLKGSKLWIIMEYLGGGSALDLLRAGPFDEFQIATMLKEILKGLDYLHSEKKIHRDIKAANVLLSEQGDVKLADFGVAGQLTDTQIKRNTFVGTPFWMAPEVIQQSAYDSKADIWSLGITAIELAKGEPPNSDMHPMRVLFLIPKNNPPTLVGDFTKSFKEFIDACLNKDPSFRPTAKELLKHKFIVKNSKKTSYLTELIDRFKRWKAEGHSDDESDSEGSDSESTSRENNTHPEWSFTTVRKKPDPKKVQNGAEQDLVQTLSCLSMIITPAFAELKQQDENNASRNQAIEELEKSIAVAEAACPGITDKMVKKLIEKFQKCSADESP

NTRK1 (human) = NTRK1 (human) (UniProt P04629); conditions: compound 0.1 µM
NUAK1 (human) = NUAK1 (human) (UniProt O60285)
PAK6 (human) = PAK6 (human) (UniProt Q9NQU5)
PLK1 (human) = PLK1 (human) (UniProt P53350)
Sequence of PLK1 (human) (P53350 whole entry, looked up): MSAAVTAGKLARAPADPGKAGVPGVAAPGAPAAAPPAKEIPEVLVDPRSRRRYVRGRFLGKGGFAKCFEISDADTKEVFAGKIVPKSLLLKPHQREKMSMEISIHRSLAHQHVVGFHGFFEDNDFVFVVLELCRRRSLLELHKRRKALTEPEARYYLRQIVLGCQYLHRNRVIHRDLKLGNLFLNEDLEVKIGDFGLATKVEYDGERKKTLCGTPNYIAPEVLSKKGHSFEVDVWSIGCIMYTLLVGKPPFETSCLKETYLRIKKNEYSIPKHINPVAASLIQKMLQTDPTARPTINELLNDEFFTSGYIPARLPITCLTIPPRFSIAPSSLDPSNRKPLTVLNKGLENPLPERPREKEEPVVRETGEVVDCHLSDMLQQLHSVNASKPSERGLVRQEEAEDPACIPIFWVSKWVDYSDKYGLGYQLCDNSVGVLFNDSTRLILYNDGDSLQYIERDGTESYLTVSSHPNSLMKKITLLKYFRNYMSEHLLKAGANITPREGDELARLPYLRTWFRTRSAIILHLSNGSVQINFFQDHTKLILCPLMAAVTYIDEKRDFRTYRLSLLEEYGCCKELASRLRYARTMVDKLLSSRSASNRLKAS

PRKCA (human) = PRKCA (human) (UniProt P17252)
PRKCZ (human) = PRKCZ (human) (UniProt Q05513)
RPS6KA1 KD1 KD2 (human) = RPS6KA1 KD1 KD2 (human) (UniProt Q15418)
RPS6KA3 KD1 KD2 (human) = RPS6KA3 KD1 KD2 (human) (UniProt P51812)
RPS6KA5 KD1 KD2 (human) = RPS6KA5 KD1 KD2 (human) (UniProt O75582)
Sequence of RPS6KA5 KD1 KD2 (human) (O75582 whole entry, looked up): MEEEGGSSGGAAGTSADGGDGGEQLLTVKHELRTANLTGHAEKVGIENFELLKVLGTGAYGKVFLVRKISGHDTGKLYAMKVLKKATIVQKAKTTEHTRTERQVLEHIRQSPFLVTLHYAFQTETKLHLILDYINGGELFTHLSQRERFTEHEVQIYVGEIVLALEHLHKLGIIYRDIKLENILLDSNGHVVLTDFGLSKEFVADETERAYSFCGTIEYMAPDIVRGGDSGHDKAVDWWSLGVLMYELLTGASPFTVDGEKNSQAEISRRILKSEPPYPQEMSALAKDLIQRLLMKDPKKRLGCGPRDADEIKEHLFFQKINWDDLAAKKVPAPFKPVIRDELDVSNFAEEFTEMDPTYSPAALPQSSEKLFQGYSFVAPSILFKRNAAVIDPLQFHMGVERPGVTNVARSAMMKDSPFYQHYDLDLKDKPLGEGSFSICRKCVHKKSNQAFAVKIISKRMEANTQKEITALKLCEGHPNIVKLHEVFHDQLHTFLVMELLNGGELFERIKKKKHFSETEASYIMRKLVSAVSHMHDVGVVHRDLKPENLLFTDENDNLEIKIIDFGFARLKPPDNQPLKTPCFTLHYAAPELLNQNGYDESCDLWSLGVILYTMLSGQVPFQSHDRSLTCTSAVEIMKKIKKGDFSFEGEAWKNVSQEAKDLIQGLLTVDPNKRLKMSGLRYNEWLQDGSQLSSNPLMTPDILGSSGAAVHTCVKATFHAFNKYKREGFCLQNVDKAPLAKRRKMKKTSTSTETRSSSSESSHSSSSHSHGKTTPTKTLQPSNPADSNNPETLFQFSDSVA

[1] = tested on: SGK1 (human), O00141 [S422D]
Sequence of SGK1 (human), O00141 [S422D] (O00141 whole entry S422D, looked up): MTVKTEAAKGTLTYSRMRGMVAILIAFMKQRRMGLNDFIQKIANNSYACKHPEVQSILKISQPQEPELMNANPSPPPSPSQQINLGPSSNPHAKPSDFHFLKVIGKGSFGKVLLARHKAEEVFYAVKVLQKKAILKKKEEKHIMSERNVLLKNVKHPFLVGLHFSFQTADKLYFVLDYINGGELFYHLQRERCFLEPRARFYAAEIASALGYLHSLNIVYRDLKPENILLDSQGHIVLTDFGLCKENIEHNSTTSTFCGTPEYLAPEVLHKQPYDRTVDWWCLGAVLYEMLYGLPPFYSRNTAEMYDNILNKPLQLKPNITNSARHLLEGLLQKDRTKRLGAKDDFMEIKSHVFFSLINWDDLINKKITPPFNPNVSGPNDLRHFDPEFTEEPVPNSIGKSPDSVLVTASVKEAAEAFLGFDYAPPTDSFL

SRC (human) = SRC (human) (UniProt P12931)
Sequence of SRC (human) (P12931 whole entry, looked up): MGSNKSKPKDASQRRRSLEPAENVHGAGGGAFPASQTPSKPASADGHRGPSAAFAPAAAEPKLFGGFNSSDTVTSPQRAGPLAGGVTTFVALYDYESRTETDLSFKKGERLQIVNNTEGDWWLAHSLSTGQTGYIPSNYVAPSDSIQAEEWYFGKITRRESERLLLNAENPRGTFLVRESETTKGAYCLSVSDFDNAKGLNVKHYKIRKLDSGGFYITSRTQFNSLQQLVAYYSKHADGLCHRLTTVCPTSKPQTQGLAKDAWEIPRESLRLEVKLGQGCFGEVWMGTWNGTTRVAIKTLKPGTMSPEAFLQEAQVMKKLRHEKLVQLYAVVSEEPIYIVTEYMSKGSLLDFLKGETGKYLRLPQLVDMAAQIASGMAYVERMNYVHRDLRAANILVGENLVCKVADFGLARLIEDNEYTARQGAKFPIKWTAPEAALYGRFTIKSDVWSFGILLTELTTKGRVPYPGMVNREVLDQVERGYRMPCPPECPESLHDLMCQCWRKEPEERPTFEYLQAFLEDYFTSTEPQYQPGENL

STK3 (human) = STK3 (human) (UniProt Q13188)
TAOK1 (human) = TAOK1 (human) (UniProt Q7L7X3); conditions: compound 0.1 µM

Sequence of CHEK1 (human) (O14757 whole entry, looked up): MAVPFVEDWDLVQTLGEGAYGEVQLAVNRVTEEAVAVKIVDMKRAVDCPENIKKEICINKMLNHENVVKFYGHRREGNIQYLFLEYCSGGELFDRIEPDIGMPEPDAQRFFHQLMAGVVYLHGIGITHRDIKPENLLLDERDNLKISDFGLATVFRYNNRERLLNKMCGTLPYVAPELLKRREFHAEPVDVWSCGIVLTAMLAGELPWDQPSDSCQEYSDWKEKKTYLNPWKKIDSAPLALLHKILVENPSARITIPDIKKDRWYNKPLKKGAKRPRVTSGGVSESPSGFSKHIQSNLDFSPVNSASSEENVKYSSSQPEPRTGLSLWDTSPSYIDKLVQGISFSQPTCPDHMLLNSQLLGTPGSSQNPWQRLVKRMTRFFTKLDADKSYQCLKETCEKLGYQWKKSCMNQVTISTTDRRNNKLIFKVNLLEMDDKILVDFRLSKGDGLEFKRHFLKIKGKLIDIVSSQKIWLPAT

O=C(O)c1ccc(-c2c[nH]c3ncc(-c4ccccc4)cc23)cc1C1CCCC1
residual activity (AURKA (human)): 78% | residual activity (BRSK2 (human); compound 0.1 µM): 86% | residual activity (BRSK2 (human); compound 1.0 µM): 61% | residual activity (BRSK2 (human); compound 10.0 µM): 20% | residual activity (CDK2 CCNA2 (human); compound 0.1 µM): 106% | residual activity (CDK2 CCNA2 (human); compound 1.0 µM): 1% | residual activity (CDK2 CCNA2 (human); compound 10.0 µM): 0% | residual activity (CHEK1 (human); compound 0.1 µM): 112% | residual activity (CHEK1 (human); compound 1.0 µM): 108% | residual activity (CHEK1 (human); compound 10.0 µM): 79% | residual activity (CHEK2 (human); compound 0.1 µM): 83% | residual activity (CHEK2 (human); compound 1.0 µM): 40% | residual activity (CHEK2 (human); compound 10.0 µM): 28% | residual activity (CLK2 (human)): 65% | residual activity (DAPK1 (human)): 87% | residual activity (EEF2K (human); compound 0.1 µM): 120% | residual activity (EEF2K (human); compound 1.0 µM): 110% | residual activity (EPHB4 (human)): 122% | residual activity (ERBB4 (human); compound 0.1 µM): 105% | residual activity (ERBB4 (human); compound 1.0 µM): 86% | residual activity (ERBB4 (human); compound 10.0 µM): 71% | residual activity (FLT1 (human); compound 0.1 µM): 98% | residual activity (FLT1 (human); compound 1.0 µM): 63% | residual activity (FLT1 (human); compound 10.0 µM): 15% | residual activity (GCK (human); compound 0.1 µM): 8% | residual activity (GCK (human); compound 1.0 µM): 3% | residual activity (GCK (human); compound 10.0 µM): 1% | residual activity (HIPK1 (human)): 99% | residual activity (HIPK3 (human)): 100% | residual activity (JAK2 JH1 JH2 (human)): 24% | residual activity (MAP3K1 (human)): 92% | residual activity (MAP3K5 (human)): 100% | residual activity (MAPK1 (human); compound 0.1 µM): 100% | residual activity (MAPK1 (human); compound 1.0 µM): 103% | residual activity (MAPK1 (human); compound 10.0 µM): 61% | residual activity (MAPK3 (human); compound 0.1 µM): 105% | residual activity (MAPK3 (human); compound 1.0 µM): 75% | residual activity (MAPK3 (human); compound 10.0 µM): 39% | residual activity (MARK3 (human); compound 0.1 µM): 89% | residual activity (MARK3 (human); compound 1.0 µM): 60% | residual activity (MARK3 (human); compound 10.0 µM): 29% | residual activity (MARK4 (human)): 110% | residual activity (MST4 (human); compound 0.1 µM): 81% | residual activity (MST4 (human); compound 1.0 µM): 68% | residual activity (MST4 (human); compound 10.0 µM): 13% | residual activity (NTRK1 (human)): 29% | residual activity (NUAK1 (human); compound 0.1 µM): 45% | residual activity (NUAK1 (human); compound 1.0 µM): 15% | residual activity (NUAK1 (human); compound 10.0 µM): 10% | residual activity (PAK6 (human); compound 0.1 µM): 102% | residual activity (PAK6 (human); compound 1.0 µM): 103% | residual activity (PAK6 (human); compound 10.0 µM): 61% | residual activity (PLK1 (human); compound 0.1 µM): 93% | residual activity (PLK1 (human); compound 1.0 µM): 31% | residual activity (PLK1 (human); compound 10.0 µM): 5% | residual activity (PRKCA (human); compound 0.1 µM): 100% | residual activity (PRKCA (human); compound 1.0 µM): 61% | residual activity (PRKCA (human); compound 10.0 µM): 33% | residual activity (PRKCZ (human); compound 0.1 µM): 96% | residual activity (PRKCZ (human); compound 1.0 µM): 105% | residual activity (PRKCZ (human); compound 10.0 µM): 87% | residual activity (RPS6KA1 KD1 KD2 (human); compound 0.1 µM): 102% | residual activity (RPS6KA1 KD1 KD2 (human); compound 1.0 µM): 93% | residual activity (RPS6KA1 KD1 KD2 (human); compound 10.0 µM): 38% | residual activity (RPS6KA3 KD1 KD2 (human); compound 0.1 µM): 96% | residual activity (RPS6KA3 KD1 KD2 (human); compound 1.0 µM): 97% | residual activity (RPS6KA5 KD1 KD2 (human); compound 0.1 µM): 94% | residual activity (RPS6KA5 KD1 KD2 (human); compound 1.0 µM): 103% | residual activity (RPS6KA5 KD1 KD2 (human); compound 10.0 µM): 62% | residual activity ([1]; compound 0.1 µM): 56% | residual activity ([1]; compound 1.0 µM): 9% | residual activity ([1]; compound 10.0 µM): 1% | residual activity (SRC (human); compound 0.1 µM): 93% | residual activity (SRC (human); compound 1.0 µM): 102% | residual activity (SRC (human); compound 10.0 µM): 44% | residual activity (STK3 (human); compound 0.1 µM): 68% | residual activity (STK3 (human); compound 1.0 µM): 22% | residual activity (STK3 (human); compound 10.0 µM): 4% | residual activity (TAOK1 (human)): 98%
